{"source": "paper PMC10381309", "about": "(Journal of Fungi, 2023)", "format_in_all_cases": "cell-based", "key": {"[1]": {"tested_on": "Cladophialophora carrionii (CFP 00910)", "experiment": "MIC determination (EUCAST, minor modifications)", "details": "for Selectivity Index (SI): C. carrionii", "procedure": "(§1) Minimum inhibitory concentrations (MICs) were determined using the method proposed by the European Committee on Antimicrobial Susceptibility Testing (EUCAST), with minor modifications. Hit drugs were serially diluted (80 μM to 0.15625 μM) in RPMI 1640 (twice concentrated, pH 7; supplemented with 2% glucose) buffered with MOPS in 96-well plates. The inoculums of all strains were prepared following the EUCAST protocol. Plates were incubated at 35 °C for 72–96 h. The MIC of the NCC substances was determined as the lowest concentration capable of inhibiting 100% of fungal growth when compared to the growth control well. MIC values were determined in duplicate."}, "[2]": {"tested_on": "Exophiala dermatitidis (ATCC 28869)", "experiment": "MIC determination (EUCAST, minor modifications)", "details": "for Selectivity Index (SI): E. dermatitidis", "procedure": "as §1"}, "[3]": {"tested_on": "Exophiala heteromorpha (ATCC 28180)", "experiment": "MIC determination (EUCAST, minor modifications)", "details": "for Selectivity Index (SI): E. heteromorpha", "procedure": "as §1"}, "[4]": {"tested_on": "Fonsecaea monophora (CFP 00911)", "experiment": "MIC determination (EUCAST, minor modifications)", "details": "for Selectivity Index (SI): F. monophora", "procedure": "as §1"}, "[5]": {"tested_on": "Fonsecaea nubica (CFP 00912)", "experiment": "MIC determination (EUCAST, minor modifications)", "details": "for Selectivity Index (SI): F. nubica", "procedure": "as §1"}, "[6]": {"tested_on": "Fonsecaea pedrosoi (CFP 00791)", "experiment": "MIC determination (EUCAST, minor modifications)", "details": "for Selectivity Index (SI): F. pedrosoi", "procedure": "as §1"}, "[7]": {"tested_on": "Phialophora verrucosa (CFP 00937)", "experiment": "MIC determination (EUCAST, minor modifications)", "details": "for Selectivity Index (SI): P. verrucosa", "procedure": "as §1"}, "[8]": {"tested_on": "Rhinocladiela similis (CFP 00790)", "experiment": "MIC determination (EUCAST, minor modifications)", "details": "for Selectivity Index (SI): R. similis", "procedure": "as §1"}, "[9]": {"tested_on": "Cladophialophora carrionii (CFP 00910)", "experiment": "Minimum fungicidal concentration determination", "procedure": "The MFC was determined as the lowest drug concentration without fungal growth on Sabouraud agar after five days of incubation at 35 °C."}, "[10]": {"tested_on": "Exophiala dermatitidis (ATCC 28869)", "experiment": "Minimum fungicidal concentration determination", "procedure": "(§2) Minimum fungicidal concentration (MFC) was determined in triplicate by transferring a 5 μL aliquot from each well without fungal growth of the microdilution plates used for MIC determination, as described above, onto 2% glucose Sabouraud agar (Sigma Chemical Corporation). The MFC was determined as the lowest drug concentration without fungal growth on Sabouraud agar after five days of incubation at 35 °C. When the MFC/MIC ratio of a hit drug was 1 or 2, the substance was considered fungicidal against the pathogen. If this ratio was greater than 2, the hit drug was considered to be fungistatic."}, "[11]": {"tested_on": "Exophiala heteromorpha (ATCC 28180)", "experiment": "Minimum fungicidal concentration determination", "procedure": "as §2"}, "[12]": {"tested_on": "Fonsecaea monophora (CFP 00911)", "experiment": "Minimum fungicidal concentration determination", "procedure": "as §2"}, "[13]": {"tested_on": "Fonsecaea nubica (CFP 00912)", "experiment": "Minimum fungicidal concentration determination", "procedure": "as §2"}, "[14]": {"tested_on": "Fonsecaea pedrosoi (CFP 00791)", "experiment": "Minimum fungicidal concentration determination", "procedure": "as §2"}, "[15]": {"tested_on": "Phialophora verrucosa (CFP 00937)", "experiment": "Minimum fungicidal concentration determination", "procedure": "as §2"}, "[16]": {"tested_on": "Rhinocladiela similis (CFP 00790)", "experiment": "Minimum fungicidal concentration determination", "procedure": "as §2"}, "CBM agents": {"tested_on": "CBM agents", "experiment": "Chequerboard synergism assay, stated over all tested isolates", "procedure": "To assess the type of interaction between the hit drugs and the antifungal drugs most used in the treatment of CBM (itraconazole and terbinafine), the fractional inhibitory concentration index (FICI) was determined, which defines the type of interaction between drugs in combination as follows: synergism if FICI ≤ 0.5; indifference if 0.5 < FICI ≤ 4; and antagonism if FICI > 4 [39]. The FICI was obtained by the sum of the fractional inhibitory concentrations (FIC) or by the formula: (A/MIC(a) = FIC_A) + (B/MIC(b) = FIC_B) = FICI, where: A = MIC of the drug (a) in combination; MIC (a) = MIC of drug (a) alone; B = MIC of drug (b) in combination; and MIC (b) = MIC of drug (b) alone. The test was carried out using the chequerboard method, in which the two drugs were applied in a single well of a 96-well plate, so that in each of the wells there were different concentrations of the combinations between the substance and the antifungal agent (Figure S1). Drug dilutions were prepared following the methodology proposed by EUCAST, starting from a stock solution of the hit drug or antifungal drug 100× concentrated, according to the methodology described to determine the MIC [36]. Hit drug A/antifungal drug B serial microdilution preparations were performed following the above mentioned protocol, observing the final concentration in the wells after the addition of drugs and inoculum. […]"}, "[17]": {"details": "Exophiala dermatitidis, ATCC28869"}, "[18]": {"details": "Exophiala heteromorpha, ATCC28180"}}}
{"smiles": "CCCSc1ccc2nc(NC(=O)OC)[nH]c2c1", "note": "[Albendazole]", "values": [{"measurement": "Selectivity Index (SI)", "setting": "[1]; CC50 HaCat 96 h / MIC", "value": 34.04}, {"measurement": "Selectivity Index (SI)", "setting": "[1]; CC50 Vero 24 h / MIC", "value": 150.94}, {"measurement": "Selectivity Index (SI)", "setting": "[1]; CC50 Vero 96 h / MIC", "value": 104.62}, {"measurement": "MIC", "setting": "[1]; Cladophialophora carrionii", "value": 2.5, "unit": "µM"}, {"measurement": "Selectivity Index (SI)", "setting": "[2]; CC50 HaCat 96 h / MIC", "value": 34.04}, {"measurement": "Selectivity Index (SI)", "setting": "[2]; CC50 Vero 24 h / MIC", "value": 150.94}, {"measurement": "Selectivity Index (SI)", "setting": "[2]; CC50 Vero 96 h / MIC", "value": 104.62}, {"measurement": "MIC", "setting": "[2]; [17]", "value": 2.5, "unit": "µM"}, {"measurement": "Selectivity Index (SI)", "setting": "[3]; CC50 HaCat 96 h / MIC", "value": 34.04}, {"measurement": "Selectivity Index (SI)", "setting": "[3]; CC50 Vero 24 h / MIC", "value": 150.94}, {"measurement": "Selectivity Index (SI)", "setting": "[3]; CC50 Vero 96 h / MIC", "value": 104.62}, {"measurement": "MIC", "setting": "[3]; [18]", "value": 2.5, "unit": "µM"}, {"measurement": "Selectivity Index (SI)", "setting": "[4]; CC50 HaCat 96 h / MIC", "value": 136.16}, {"measurement": "Selectivity Index (SI)", "setting": "[4]; CC50 Vero 24 h / MIC", "value": 603.76}, {"measurement": "Selectivity Index (SI)", "setting": "[4]; CC50 Vero 96 h / MIC", "value": 418.49}, {"measurement": "MIC", "setting": "[4]; Fonsecaea monophora", "value": 0.625, "unit": "µM"}, {"measurement": "Selectivity Index (SI)", "setting": "[5]; CC50 HaCat 96 h / MIC", "value": 136.16}, {"measurement": "Selectivity Index (SI)", "setting": "[5]; CC50 Vero 24 h / MIC", "value": 603.76}, {"measurement": "Selectivity Index (SI)", "setting": "[5]; CC50 Vero 96 h / MIC", "value": 418.49}, {"measurement": "MIC", "setting": "[5]; Fonsecaea nubica", "value": 0.625, "unit": "µM"}, {"measurement": "Selectivity Index (SI)", "setting": "[6]; CC50 HaCat 96 h / MIC", "value": 68.08}, {"measurement": "Selectivity Index (SI)", "setting": "[6]; CC50 Vero 24 h / MIC", "value": 301.88}, {"measurement": "Selectivity Index (SI)", "setting": "[6]; CC50 Vero 96 h / MIC", "value": 209.24}, {"measurement": "MIC", "setting": "[6]; Fonsecaea pedrosoi", "value": 1.25, "unit": "µM"}, {"measurement": "Selectivity Index (SI)", "setting": "[7]; CC50 HaCat 96 h / MIC", "value": 136.16}, {"measurement": "Selectivity Index (SI)", "setting": "[7]; CC50 Vero 24 h / MIC", "value": 603.76}, {"measurement": "Selectivity Index (SI)", "setting": "[7]; CC50 Vero 96 h / MIC", "value": 418.49}, {"measurement": "MIC", "setting": "[7]; Phialophora verrucosa", "value": 0.625, "unit": "µM"}, {"measurement": "MIC", "setting": "[8]", "value": 1.25, "unit": "µM"}, {"measurement": "Selectivity Index (SI)", "setting": "[8]; CC50 HaCat 96 h / MIC", "value": 68.08}, {"measurement": "Selectivity Index (SI)", "setting": "[8]; CC50 Vero 24 h / MIC", "value": 301.88}, {"measurement": "Selectivity Index (SI)", "setting": "[8]; CC50 Vero 96 h / MIC", "value": 209.24}, {"measurement": "MFC:MIC Ratio", "setting": "[9]; C. carrionii", "value": 8}, {"measurement": "MFC", "setting": "[9]; Cladophialophora carrionii", "value": 20, "unit": "µM"}, {"measurement": "MFC:MIC Ratio", "setting": "[10]; E. dermatitidis", "value": ">32"}, {"measurement": "MFC", "setting": "[10]; [17]", "value": "> 80", "unit": "µM"}, {"measurement": "MFC:MIC Ratio", "setting": "[11]; E. heteromorpha", "value": 32}, {"measurement": "MFC", "setting": "[11]; [18]", "value": 80, "unit": "µM"}, {"measurement": "MFC:MIC Ratio", "setting": "[12]; F. monophora", "value": 1}, {"measurement": "fungicidal or fungistatic (MFC/MIC ratio)", "setting": "[12]; F. monophora", "value": "fungicidal (When the MFC/MIC ratio of a hit drug was 1 or 2, the substance was considered fungicidal)"}, {"measurement": "MFC", "setting": "[12]; Fonsecaea monophora", "value": 0.625, "unit": "µM"}, {"measurement": "MFC:MIC Ratio", "setting": "[13]; F. nubica", "value": 64}, {"measurement": "MFC", "setting": "[13]; Fonsecaea nubica", "value": 40, "unit": "µM"}, {"measurement": "MFC:MIC Ratio", "setting": "[14]; F. pedrosoi", "value": 1}, {"measurement": "fungicidal or fungistatic (MFC/MIC ratio)", "setting": "[14]; F. pedrosoi", "value": "fungicidal (When the MFC/MIC ratio of a hit drug was 1 or 2, the substance was considered fungicidal)"}, {"measurement": "MFC", "setting": "[14]; Fonsecaea pedrosoi", "value": 1.25, "unit": "µM"}, {"measurement": "MFC:MIC Ratio", "setting": "[15]; P. verrucosa", "value": 64}, {"measurement": "MFC", "setting": "[15]; Phialophora verrucosa", "value": 40, "unit": "µM"}, {"measurement": "MFC", "setting": "[16]", "value": "> 80", "unit": "µM"}, {"measurement": "MFC:MIC Ratio", "setting": "[16]; R. similis", "value": ">64"}, {"measurement": "type of interaction, albendazole with itraconazole", "setting": "CBM agents", "value": "indifferent"}, {"measurement": "type of interaction, albendazole with terbinafine", "setting": "CBM agents", "value": "indifferent"}]}
